# From US11512290B2, “Compositions and methods for cellular reprogramming” (Duke University, priority 2018, dated 2022)
# “Also recorded” adds a separate entry of the source. {ppp} = triphosphate
# Tests used:
# Assay type in all cases: cell-based, Mouse (C57BL/6)
# [1] = test system: neonatal cardiac fibroblasts; test: qPCR of cardiomyocyte sarcomere (maturation) genes in miR combo reprogrammed fibroblasts; conditions: for cardiomyocyte maturation (expression of Actn2, Myh6, Tnni3, Cacna1c): miR combo or negmiR transfected, various concentrations of ICR for 4 days, gene expression at day 14
# Method: (§1) Mouse (C57BL/6) neonatal cardiac fibroblasts were isolated from 2 day old mouse neonates according to the method outlined in Jayawardena et al. Following isolation fibroblasts were cultured in growth media containing DMEM (ATCC, Catalogue number 30-2002) supplemented with 15% v/v FBS (Thermo Scientific Hyclone Fetal bovine serum, Catalogue number SH30071.03, Lot number AXK49952) and 1% v/v penicillin/streptomycin (Gibco, Catalogue number 15140-122, 100 units Penicillin, 100 ug/ml Streptomycin). Fibroblasts were passaged once the cells had reached 70-80% confluence using 0.05% w/v trypsin (Gibco, Catalogue number 25300-054). Freshly isolated fibroblasts were labelled as Passage 0. Experiments were conducted with cells at passage 2. For all experiments, cells were seeded at 5000 cells/cm^2 in growth media. After 24 hours, the cells were transfected with transfection reagent alone (Dharmafect-I, ThermoScientific), with transfection reagent plus non-targeting microRNAs (negmiR), or with transfection reagent plus our previously reported combination of cardiac reprogramming microRNAs[9] (miR combo, miR-1, miR-133, miR-208, miR-499).
# qPCR: Total RNA was extracted using Quick-RNA MiniPrep Kit according to the manufacturer's instructions (Zymo Research). Total RNA (50 ng-100 ng) was converted to cDNA using a high capacity cDNA reverse transcription kit (Applied Biosystems). cDNA was used in a standard qPCR reaction involving FAM conjugated gene specific primers and TaqMan Gene Expression Master Mix (Applied Biosystems). The following primers were used for qPCR: Gapdh (Mm99999915_m1), Tnni3 (Mm00437164_m1), Actn2 (Mm00473657_m1), Myh6 (Mm00440359_m1), Cacna1c (Mm00437917_m1), Mef2C (Mm01340482_m1), Tbx5 (Mm00803518_m1), Gata4 (Mm00484689_m1) and Hand2 (Mm00439247 m1).
# [2] = test system: neonatal cardiac fibroblasts; test: Actn2 (α-sarcomeric actinin) immunofluorescence of reprogrammed fibroblasts
# Method: as §1
# Cells were fixed with 2% v/v paraformaldehyde (EMS) as described previously. Fixed cells were blocked in antibody buffer (5% w/v BSA, 0.1% v/v Tween-20, in PBS) for 1 hr at room temperature. Following blocking, cells were incubated overnight at 4° C. with a-sarcomeric actinin antibody (Sigma, A7811, 1:100) in antibody buffer. After the overnight incubation, cells were washed three times in antibody buffer. Following washing, cells were incubated with Alexa-Fluor conjugated secondary antibodies (Invitrogen, Goat Anti-mouse 594 nm) at a 1:500 dilution in antibody buffer for 1 hr at room temperature. Nuclei were stained by DAPI at 1 μg/ml for 30 minutes at room temperature in antibody buffer. Following washing in PBS to remove unbound complexes, immunofluorescence was measured using a Zeiss Axiovert 200 inverted microscope.
# [3] = test system: neonatal cardiac fibroblasts; test: qPCR of cardiomyocyte-lineage commitment factors (initiation phase of cardiac reprogramming); conditions: TLR3 agonist Poly(I:C) LMW for 3 days after transfection, FIGS. 2Bi-2Biv
# Method: as §1
# qPCR: Total RNA was extracted using Quick-RNA MiniPrep Kit according to the manufacturer's instructions (Zymo Research). […]
# [4] = test system: neonatal cardiac fibroblasts; test: Generating beating reprogrammed cardiomyocytes (count of beating colonies)
# Method: Isolated mouse (C57BL/6) neonatal cardiac fibroblasts (passage 2) were seeded into 12-well dishes at […] in growth media. Twenty-four hours later growth media was removed and the cells transfected with negmiR or miR combo as described above. One day later, the transfection complexes were removed and media was replaced with a chemically defined reprogramming media[12] that contained 1 ug/ml Poly(I:C) (LMW). For the next four days, cells received fresh chemically defined reprogramming media containing 1 ug/ml Poly(I:C) (LMW) daily. After this period, the cells received chemically defined reprogramming media without Poly(I:C) (LMW) for a further 10 days. Media was replaced every other day. Beating colonies were identified with a Zeiss Axiovert 200 inverted microscope.
# TLR3 = target: T1, TLR3 (Mus musculus, UniProt Q99MB1); test: IL6 ELISA: TLR3 activity measured as IL6 secretion into the media; conditions: CU-CPT-4a added one day post-transfection
# T1 construct: neonatal cardiac fibroblasts were transfected with negmiR or miR combo; endogenous in cells; host or cells: mouse (C57BL/6) neonatal cardiac fibroblasts, passage 2
# T1 sequence (Q99MB1 26-905): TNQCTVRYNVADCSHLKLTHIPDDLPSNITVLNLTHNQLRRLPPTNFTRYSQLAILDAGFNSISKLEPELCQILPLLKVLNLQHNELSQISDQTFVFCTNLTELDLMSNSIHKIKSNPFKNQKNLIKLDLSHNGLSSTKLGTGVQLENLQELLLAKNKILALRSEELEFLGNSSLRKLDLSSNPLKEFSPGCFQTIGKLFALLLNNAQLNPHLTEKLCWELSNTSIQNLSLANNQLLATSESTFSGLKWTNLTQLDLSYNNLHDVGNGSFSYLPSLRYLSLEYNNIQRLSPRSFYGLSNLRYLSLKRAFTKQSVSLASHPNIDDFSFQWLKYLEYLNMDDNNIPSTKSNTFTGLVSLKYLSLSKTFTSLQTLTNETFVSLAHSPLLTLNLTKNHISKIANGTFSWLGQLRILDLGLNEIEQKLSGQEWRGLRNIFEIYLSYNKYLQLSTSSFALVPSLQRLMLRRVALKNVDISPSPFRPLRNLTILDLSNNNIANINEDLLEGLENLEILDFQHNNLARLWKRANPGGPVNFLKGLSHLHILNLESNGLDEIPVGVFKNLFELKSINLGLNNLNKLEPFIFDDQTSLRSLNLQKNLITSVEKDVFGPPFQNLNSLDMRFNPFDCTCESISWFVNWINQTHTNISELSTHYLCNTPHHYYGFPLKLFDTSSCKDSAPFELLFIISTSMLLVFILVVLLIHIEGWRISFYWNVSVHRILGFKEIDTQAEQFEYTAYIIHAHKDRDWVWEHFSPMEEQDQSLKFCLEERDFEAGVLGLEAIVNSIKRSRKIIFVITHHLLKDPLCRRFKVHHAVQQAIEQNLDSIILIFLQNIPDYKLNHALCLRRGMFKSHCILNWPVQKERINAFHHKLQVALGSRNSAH
# Method: IL6 ELISA kits were from R&D Systems. Fresh media (1 ml) was added to the cells one day prior to assaying for IL6. Per manufacturer's instructions 50 ul of media was assayed and the amount of IL6 in pg/ml in the culture media was determined via a standard curve. The IL6 pg/ml value was then adjusted for the total volume of the media (1 ml) and the total cellular protein in each well to correct for differences in cell number.
# To test this further we transfected cells with microRNAs and assessed TLR3 activity by measuring IL6 secretion into the media. IL6 secretion is an accepted measurement of the activity of TLRs, including TLR3 [30-37]. […] Targeted knockdown of TLR3 or Ikbkb inhibited miR combo induced IL6 secretion; further validating that miR combo activated the TLR3-NFκB pathway (FIG. 6B).
compound,measurement,setting,value
Poly(I:C),"effect of miR combo upon Myh6, Actn2 and Tnni3 expression","[1]; Poly(I:C) LMW for 4 days after miR combo transfection, then 10 days growth media",significantly enhanced
same,"expression of Myh6, Actn2 and Tnni3 in the control negmiR samples","[1]; Poly(I:C) LMW for 4 days after negmiR transfection, then 10 days growth media",induced expression
same,number of Actn2(+) cells that formed in response to miR combo treatment,"[2]; Poly(I:C) LMW for 4 days, FIG. 7C",increased
same,sarcomere maturation,"[2]; miR combo plus Poly(I:C), inserts of FIGS. 7Bi-7Bvi",enhanced
same,"expression of cardiomyocyte-commitment factors Gata4, Hand2, Tbx5 and Mef2C",[3],no effect
same,increase of the ability of miR combo to form spontaneously beating colonies,"[4]; addition of Poly(I:C) (LMW) 1 ug/ml, colonies counted 14 days after transfection",3 fold
same,time at which mature beating colonies were observed,"[4]; miR combo plus Poly(I:C), time after transfection",within one week
O=C(N[C@H](Cc1ccccc1)C(=O)O)c1sc2cc(F)ccc2c1Cl [CU-CPT-4a],effect of miR combo upon cardiomyocyte sarcomere gene expression,"[1]; CU-CPT-4a 10 μM for 4 days after miR combo transfection, then 6 days growth media",completely abolished
same,"miR combo reprogramming with respect to the expression of Myh6, Actn2, and Tnni3","[1]; CU-CPT-4a 10 μM for 4 days after transfection, then 10 days growth media, FIGS. 1Bi-1Biii",completely inhibited
same,ability of miR combo to generate mature cardiomyocytes with organized sarcomeres,"[2]; CU-CPT-4a 10 μM, anti-Actn2 staining, FIGS. 1Ci-1Ciii",completely inhibited
same,effect of negmiR and miR combo upon IL6 secretion,TLR3,completely ablated
"ICR2: 2′F pyrimidine-incorporated 5′ppp RNA, blunt-ended hairpin, SEQ ID NO: 30: ggaug cggua ccuga cagca ucc (GGAUGCGGUACCUGACAGCAUCC; 2'-fluoro at CU, RNA at AG, 5' {ppp}, backbone not given here; blunt-ended hairpin)","cardiomyocyte maturation (expression of Actn2, Myh6, Tnni3, Cacna1c)",[1],induced maturation; also recorded: activated cardiomyocyte maturation
"ICR4: 5′ppp 2′F ssRNA comprising multiple stem-loops, SEQ ID NO: 37: ggaug cggua ccuga cagca uccua aacuc auggu ccaug uuugu ccaug gacca (GGAUGCGGUACCUGACAGCAUCCUAAACUCAUGGUCCAUGUUUGUCCAUGGACCA; 2'-fluoro at CU, RNA at AG, 5' {ppp}, backbone not given here; single strand with multiple stem-loops)","cardiomyocyte maturation (expression of Actn2, Myh6, Tnni3, Cacna1c)",[1],activated cardiomyocyte maturation
